Where “and” joins values, the source holds several entries; their conditions need not be identical. Equal entries are not always repeated.
Columns and labels:
[1] = Cytotoxicity assay; details: human, MMTV-βLa HeLa cells, EC50 (95% confidence interval), Cytotoxicity assay (ATP content)
[2] = molecular target: green coffee bean α-galactosidase A (GLA) (Coffea arabica, UniProt Q42656); experiment: α-galactosidase; type: biochemical
[3] = HP D300 - with DMSO backfill, 384-well
[4] = HP D300 - without DMSO backfill, 384-well

Chain of green coffee bean α-galactosidase A (GLA) (Q42656 16-378): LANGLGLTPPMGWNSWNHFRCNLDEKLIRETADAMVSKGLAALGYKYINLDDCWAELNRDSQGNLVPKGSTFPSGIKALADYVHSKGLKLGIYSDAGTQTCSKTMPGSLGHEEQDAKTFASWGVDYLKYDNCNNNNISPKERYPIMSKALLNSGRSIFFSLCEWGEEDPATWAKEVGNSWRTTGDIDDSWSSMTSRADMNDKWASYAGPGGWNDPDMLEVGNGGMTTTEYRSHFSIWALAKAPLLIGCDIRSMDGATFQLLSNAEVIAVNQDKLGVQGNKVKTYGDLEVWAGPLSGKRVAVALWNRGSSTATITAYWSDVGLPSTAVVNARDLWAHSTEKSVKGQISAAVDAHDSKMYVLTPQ

Row | Structure (SMILES) | EC50 at 72 hr [1, 3] [µM] | EC50 at 72 hr [1, 4] [µM] | EC50 at 72 hr ([1]; Pin tool – 1536-well) [µM] | EC50 ([2]; EC50 (95% confidence interval), α-galactosidase enzyme assay) | fold more potent in our assay than previously reported ([2]; versus previously published value, ref [4]) [fold]
1 | COc1cccc2c1C(=O)c1c(O)c3c(c(O)c1C2=O)C[C@@](O)(C(C)=O)C[C@@H]3O[C@H]1C[C@H](N)[C@H](O)[C@H](C)O1 [Daunorubicin] | 0.189 | 0.252 | 0.38 |  | 
2 | Cc1c(OCC(F)(F)F)ccnc1C[S+]([O-])c1nc2ccccc2[nH]1 (centres unmarked) [Lansoprazole, lansoprazole] |  |  |  | 12 µM and 11.5 µM and 8.95 µM | 
3 | CC(=O)[O][Hg][c]1ccccc1 [PMA, phenylmercuric acetate] |  |  |  |  | > 50
4 | CC/C(=C(\c1ccccc1)c1ccc(OCCN(C)C)cc1)c1ccccc1 [Tamoxifen, tamoxifen] | 8.77 | 9 | 32.1 |  | 
